US20260151516A1, “NEW PET TRACER FOR IMAGING OF THE FUNCTIONAL HEPATIC RESERVE” (Medizinische Universität Innsbruck, priority 2022, published 2026)
Where “and” joins values, the source holds several entries; their conditions need not be identical. Identical values can stand only once. Like-named read-outs stand apart in the source and are kept apart here.

Assays:
[1] = Ligand stability in PBS (radio-HPLC); format: physicochemical; conditions: 37° C., over the time course of 2 h
Description: (§1) Ligand stability in human blood serum (n=2) and PBS (n=1) was determined for different time points (2 min, 30 min, 60 min, 120 min). Therefore, approx. 5 MBq of radioligand was added to 1 mL of fresh human serum or PBS and incubated at 37° C. At each given time point 100 μL of the mixture were transferred to a 1.5 mL Eppendorf tube containing 100 μL of acetonitrile. The vial was vortexed and centrifuged for 2 min at 14,000 rpm before 100 μL of the supernatant were diluted with 200 μL of water and injected into analytical radio-HPLC. The PBS solution was directly injected into the radio-HPLC. Ligand stability was determined by integrating the areas of the signals in the radio chromatogram in relation to the signal of the intact ligand.

[2] = Ligand stability in human blood serum (radio-HPLC); format: in vitro ADME; conditions: for Serum stability (% of intact ligand): 37° C.; for Stability in human blood serum (% intact tracer): over the time course of 2 h
Description: as §1

[3] = Biodistribution studies incl. blocking experiments; format: in vivo; conditions: healthy BALB/c mice
Description: For biodistribution studies 6 week old female BALB/c mice (n=3) were injected with 0.1 nmol (100 μL, approx. 1 MBq) of labelled compound via the lateral tail vein and sacrificed after 10, 30, or 60 min by cervical dislocation. The mice were dissected, blood and organs (spleen, pancreas, stomach, intestine, liver, kidney, heart, lung, muscle, and bone) were weighed, and their activity measured in a γ-counter. For blocking experiments, mice were co-injected with 100 μL of a 277 mM Galactose/PBS solution. In case of [^68Ga]Ga-TRAP-GalNAc a 277 mM N-Acetylgalactose solution was used.

human serum = assay: Protein binding in fresh human serum (Sephadex MicroSpin G-50 columns); format: in vitro ADME; conditions: 37° C.
Description: Protein binding was determined for different time points (2 min, 30 min, 60 min, 120 min) in triplicates using Sephadex MicroSpin G-50 columns (GE-Healthcare, Chicago, Illinois, USA). The columns were spun initially at 20,000 rcf for 1 min to remove the storage buffer. Then approx. 5 MBq of radioligand was added to 1 mL of fresh human serum and incubated at 37° C. At each given timepoint 25 μL of the mixture was loaded on to the column, which was then spun at 20,000 rcf for 1 min. The activity content on the column (free radioligand) and in the filtrate (protein bound fraction) was quantified in a γ-counter.

[4] = Partition coefficient (log D), n-Octanol/PBS; format: physicochemical
Description: The vials were vortexed for 5 min at 1,500 rpm and then centrifuged for 5 min at 20,000 rcf (Eppendorf Centrifuge 5424).

Recombinant human ASGR1 = target: T1, Recombinant human ASGR1 (Homo sapiens, UniProt P07306); assay: In vitro binding study, isolated receptor-based assay against ^125I-Asialoorosomucoid; conditions: recombinant human ASGR1, ^125I-Asialoorosomucoid 50 nM, n = 3; method used [^natGa]Ga-NODAGA-TriGalactan
T1 construct: His tag (inferred from immobilisation on Ni-coated plates)
T1 sequence (P07306 1-291): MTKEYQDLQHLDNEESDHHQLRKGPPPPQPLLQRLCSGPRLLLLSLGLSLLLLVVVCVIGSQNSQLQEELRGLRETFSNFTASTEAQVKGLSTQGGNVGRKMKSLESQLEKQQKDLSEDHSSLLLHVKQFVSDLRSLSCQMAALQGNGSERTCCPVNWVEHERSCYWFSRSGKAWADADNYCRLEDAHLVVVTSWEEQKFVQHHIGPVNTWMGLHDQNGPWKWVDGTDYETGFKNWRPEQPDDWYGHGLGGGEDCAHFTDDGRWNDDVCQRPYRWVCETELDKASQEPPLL
Description: Recombinant human ASGR1 was seeded out into Ni-coated 96 well plates (Pierce, Thermo Fisher) in PBS at a concentration of 2 μg/mL for at least 2 h at room temperature under mild agitation (200 1/min). Unbound receptor was removed by washing the wells twice with binding buffer (25 mM Tris×HCl, 150 mM NaCl, 0.05% TWEEN 20, pH=7.4). Next 140 μL of binding buffer as well as 20 μL of a 19 mM CaCl2-solution were added to the wells followed by addition of either 20 μL of PBS (control) or 20 μL of [^natGa]Ga-NODAGA-TriGalactan in PBS. Final ligand concentrations were ranging from 10^−5-10^−11 M. Lastly 20 μL of ^125I-Asialoorosomucoid (50 nM, 2.4 kBq per well) were added and the plate was incubated for 1 hour at room temperature under mild agitation (200 rpm). Supernatants were removed and the wells washed twice with 200 μL of PBS before receptor bound activity was released by addition of 200 μL of hot (60° C.) 1 M NaOH. Wells were incubated with NaOH for 10 min. Lysates were removed and the wells washed again twice with 200 μL of hot NaOH. The activity content in the lysates was quantified in a γ-counter and the values plotted in excel. Fitting of the sigmoidal binding curve and the calculation of the IC50 value was done with Excel's solver plugin.

[5] = 30 min p.i., blocking with 277 mM galactose

Compound: O=C(CCP(=O)([O-])CN1CCN(CP(=O)([O-])CCC(=O)NCc2cn(CCOCCOCCO[C@@H]3O[C@H](CO)[C@H](O)[C@H](O)[C@H]3O)nn2)CCN(CP(=O)([O-])CCC(=O)NCc2cn(CCOCCOCCO[C@@H]3O[C@H](CO)[C@H](O)[C@H](O)[C@H]3O)nn2)CC1)NCc1cn(CCOCCOCCO[C@@H]2O[C@H](CO)[C@H](O)[C@H](O)[C@H]2O)nn1.[68Ga+3] [[^68Ga]Ga-TRAP-Galactan]
- Stability in PBS (% intact tracer) [1]: > 99%
- Serum stability (% of intact ligand) ([2]; 2 min): 97.7 ± 0.3%
- Serum stability (% of intact ligand) ([2]; 30 min): 97.6 ± 0.2%
- Serum stability (% of intact ligand) ([2]; 60 min): 97.6 ± 0.1%
- Serum stability (% of intact ligand) ([2]; 120 min): 97.9 ± 0.1%
- Stability in human blood serum (% intact tracer) [2]: > 98%
- Biodistribution Blood ([3]; 10 min p.i.): 3.66 ± 0.2 % ID/g
- Biodistribution Femur ([3]; 10 min p.i.): 0.85 ± 0.33 % ID/g
- Biodistribution Heart ([3]; 10 min p.i.): 1.28 ± 0.06 % ID/g
- Biodistribution Intestine ([3]; 10 min p.i.): 1.24 ± 0.05 % ID/g
- Biodistribution Kidneys ([3]; 10 min p.i.): 7.4±2.1 % ID/g and 7.39 ± 2.1 % ID/g
- Biodistribution Liver ([3]; 10 min p.i.): 24.6±1.6 % ID/g
- Biodistribution Lung ([3]; 10 min p.i.): 2.31 ± 0.17 % ID/g
- Biodistribution Muscle ([3]; 10 min p.i.): 0.91 ± 0.08 % ID/g
- Biodistribution Pancreas ([3]; 10 min p.i.): 0.87 ± 0.01 % ID/g
- Biodistribution Spleen ([3]; 10 min p.i.): 0.84 ± 0.08 % ID/g
- Biodistribution Stomach ([3]; 10 min p.i.): 1.22 ± 0.20 % ID/g
- Biodistribution Blood ([3]; 30 min p.i.): 1.6 ± 0.11 % ID/g
- Biodistribution Femur ([3]; 30 min p.i.): 0.32 ± 0.05 % ID/g
- Biodistribution Heart ([3]; 30 min p.i.): 0.65 ± 0.08 % ID/g
- Biodistribution Intestine ([3]; 30 min p.i.): 2.18 ± 0.10 % ID/g
- Biodistribution Kidneys ([3]; 30 min p.i.): 4.33 ± 0.35 % ID/g
- Biodistribution Liver ([3]; 30 min p.i.): 29.7±1.7 % ID/g
- Biodistribution Lung ([3]; 30 min p.i.): 1.09 ± 0.03 % ID/g
- Biodistribution Muscle ([3]; 30 min p.i.): 0.37 ± 0.02 % ID/g
- Biodistribution Pancreas ([3]; 30 min p.i.): 0.53 ± 0.01 % ID/g
- Biodistribution Spleen ([3]; 30 min p.i.): 0.42 ± 0.07 % ID/g
- Biodistribution Stomach ([3]; 30 min p.i.): 1.00 ± 0.27 % ID/g
- Biodistribution Blood [3, 5]: 1.35 ± 0.52 % ID/g
- Biodistribution Femur [3, 5]: 0.27 ± 0.09 % ID/g
- Biodistribution Heart [3, 5]: 0.44 ± 0.09 % ID/g
- Biodistribution Intestine [3, 5]: 1.02 ± 0.18 % ID/g
- Biodistribution Kidneys [3, 5]: 3.70 ± 0.53 % ID/g
- Biodistribution Liver [3, 5]: 10.6 ± 1.4 % ID/g
- Biodistribution Lung [3, 5]: 0.86 ± 0.14 % ID/g
- Biodistribution Muscle [3, 5]: 0.30 ± 0.04 % ID/g
- Biodistribution Pancreas [3, 5]: 0.37 ± 0.04 % ID/g
- Biodistribution Spleen [3, 5]: 0.29 ± 0.03 % ID/g
- Biodistribution Stomach [3, 5]: 0.49 ± 0.07 % ID/g
- Biodistribution Blood ([3]; 60 min p.i.): 0.3±0.09 % ID/g
- Biodistribution Femur ([3]; 60 min p.i.): 0.13 ± 0.03 % ID/g
- Biodistribution Heart ([3]; 60 min p.i.): 0.16 ± 0.02 % ID/g
- Biodistribution Intestine ([3]; 60 min p.i.): 2.8±0.2 % ID/g and 2.80 ± 0.24 % ID/g
- Biodistribution Kidneys ([3]; 60 min p.i.): 1.72 ± 0.17 % ID/g
- Biodistribution Liver ([3]; 60 min p.i.): 25.0 ± 1.1 % ID/g
- Biodistribution Lung ([3]; 60 min p.i.): 0.32 ± 0.05 % ID/g
- Biodistribution Muscle ([3]; 60 min p.i.): 0.15 ± 0.03 % ID/g
- Biodistribution Pancreas ([3]; 60 min p.i.): 0.16 ± 0.02 % ID/g
- Biodistribution Spleen ([3]; 60 min p.i.): 0.17 ± 0.07 % ID/g
- Biodistribution Stomach ([3]; 60 min p.i.): 0.31 ± 0.21 % ID/g
- Protein binding (%) (human serum; 2 min): 8.2±3.4%
- Protein binding (%) (human serum; 30 min): 6.4 ± 1.8%
- Protein binding (%) (human serum; 60 min): 12.0 ± 3.1%
- Protein binding (%) (human serum; 120 min): 11.6±2.2%
- logD [4]: −4.26±0.08

Compound: O=C(O)CN1CCN(CC(=O)O)CCN([C@H](CCC(=O)NCCCC(=O)NC(COCc2cn(CCOCCOCCO[C@@H]3O[C@H](CO)[C@H](O)[C@H](O)[C@H]3O)nn2)(COCc2cn(CCOCCOCCO[C@@H]3O[C@H](CO)[C@H](O)[C@H](O)[C@H]3O)nn2)COCc2cn(CCOCCOCCO[C@@H]3O[C@H](CO)[C@H](O)[C@H](O)[C@H]3O)nn2)C(=O)O)CC1 [[^68Ga]Ga-NODAGA-TriGalactan, metal not drawn]
- Stability in PBS (% intact tracer) [1]: > 99%
- Serum stability (% of intact ligand) ([2]; 2 min): 99.8%
- Serum stability (% of intact ligand) ([2]; 30 min): 97.6%
- Serum stability (% of intact ligand) ([2]; 60 min): 98.5%
- Serum stability (% of intact ligand) ([2]; 120 min): 92.9%
- Stability in human blood serum (% intact tracer) [2]: > 93%
- IC50 (Recombinant human ASGR1): 1.7 nM
- Biodistribution Blood ([3]; 10 min p.i.): 3.3 ± 0.2 % ID/g
- Biodistribution Femur ([3]; 10 min p.i.): 0.87 ± 0.52 % ID/g
- Biodistribution Intestine ([3]; 10 min p.i.): 1.13 ± 0.07 % ID/g
- Biodistribution Kidneys ([3]; 10 min p.i.): 8.2±0.5 % ID/g and 8.15 ± 0.54 % ID/g
- Biodistribution Liver ([3]; 10 min p.i.): 33.4±0.9 % ID/g and 33.4 ± 0.88 % ID/g
- Biodistribution Lung ([3]; 10 min p.i.): 2.14 ± 0.13 % ID/g
- Biodistribution Muscle ([3]; 10 min p.i.): 0.77 ± 0.02 % ID/g
- Biodistribution Pancreas ([3]; 10 min p.i.): 0.87 ± 0.12 % ID/g
- Biodistribution Spleen ([3]; 10 min p.i.): 0.78 ± 0.05 % ID/g
- Biodistribution Blood ([3]; 30 min p.i.): 0.89 ± 0.09 % ID/g
- Biodistribution Femur ([3]; 30 min p.i.): 0.22 ± 0.02 % ID/g
- Biodistribution Heart ([3]; 30 min p.i.): 0.40 ± 0.03 % ID/g
- Biodistribution Intestine ([3]; 30 min p.i.): 1.95 ± 0.17 % ID/g
- Biodistribution Kidneys ([3]; 30 min p.i.): 2.83 ± 0.18 % ID/g
- Biodistribution Liver ([3]; 30 min p.i.): 32.2±3.7 % ID/g
- Biodistribution Lung ([3]; 30 min p.i.): 0.74 ± 0.03 % ID/g
- Biodistribution Muscle ([3]; 30 min p.i.): 0.23 ± 0.03 % ID/g
- Biodistribution Pancreas ([3]; 30 min p.i.): 0.31 ± 0.05 % ID/g
- Biodistribution Spleen ([3]; 30 min p.i.): 0.27 ± 0.02 % ID/g
- Biodistribution Stomach ([3]; 30 min p.i.): 1.05 ± 0.08 % ID/g
- Biodistribution Blood [3, 5]: 1.19 ± 0.33 % ID/g
- Biodistribution Femur [3, 5]: 0.37 ± 0.16 % ID/g
- Biodistribution Heart [3, 5]: 0.44 ± 0.03 % ID/g
- Biodistribution Intestine [3, 5]: 0.77 ± 0.19 % ID/g
- Biodistribution Kidneys [3, 5]: 4.19 ± 0.29 % ID/g
- Biodistribution Liver [3, 5]: 13.9±1.0 % ID/g and 14.6 ± 0.15 % ID/g
- Biodistribution Lung [3, 5]: 0.97 ± 0.04 % ID/g
- Biodistribution Muscle [3, 5]: 0.43 ± 0.20 % ID/g
- Biodistribution Pancreas [3, 5]: 0.45 ± 0.01 % ID/g
- Biodistribution Spleen [3, 5]: 0.32 ± 0.03 % ID/g
- Biodistribution Stomach [3, 5]: 0.68 ± 0.11 % ID/g
- Biodistribution Blood ([3]; 60 min p.i.): 0.3±0.04 % ID/g and 0.34 ± 0.04 % ID/g
- Biodistribution Femur ([3]; 60 min p.i.): 0.26 ± 0.19 % ID/g
- Biodistribution Heart ([3]; 60 min p.i.): 0.17 ± 0.00 % ID/g
- Biodistribution Intestine ([3]; 60 min p.i.): 3.0±0.4 % ID/g and 2.99 ± 0.43 % ID/g
- Biodistribution Kidneys ([3]; 60 min p.i.): 1.51 ± 0.10 % ID/g
- Biodistribution Liver ([3]; 60 min p.i.): 27.7±3.1 % ID/g and 27.7 ± 3.12 % ID/g
- Biodistribution Lung ([3]; 60 min p.i.): 0.38 ± 0.10 % ID/g
- Biodistribution Muscle ([3]; 60 min p.i.): 0.17 ± 0.02 % ID/g
- Biodistribution Pancreas ([3]; 60 min p.i.): 0.19 ± 0.09 % ID/g
- Biodistribution Spleen ([3]; 60 min p.i.): 0.16 ± 0.02 % ID/g
- Biodistribution Stomach ([3]; 60 min p.i.): 0.92 ± 0.04 % ID/g
- Protein binding (%) (human serum; 2 min): 7.6±3.9%
- Protein binding (%) (human serum; 30 min): 5.5%
- Protein binding (%) (human serum; 60 min): 9.2%
- Protein binding (%) (human serum; 120 min): 13.6±3.2%
- logD ([4]; read-out: logD): -4.33 ± 0.09
